# Source: US20040006236A1, “Diaminopropionic acid derivatives” (priority 1999, published 2004)
# Read-outs that look alike come from different tables or passages of the source.
# Columns and labels:
# [1] = biological target: T1, LFA-1 binding to immobilized ICAM-1 (Homo sapiens, UniProt P05107+P20701); test: LFA-1/ICAM-1 protein-protein assay (solid-phase ELISA)
# T1 construct: made in house; host or cells: transfected 293 cells (LFA-1)
# Procedure: (a) LFA-1/ICAM-1 screening test: LFA-1/ICAM-1 antagonist activity, defined as the ability of compounds of the invention to block LFA-1 binding to immobilized ICAM-1, was quantitated using a solid-phase ELISA.
# (§1) Typically, fusion protein consisting of the entire extracellular domain of human ICAM-1 and the Fc domain of human IgG (5dICAM-Ig) was coated onto 96-well microtiter plates (0.15 μg in 100 μL PBS) overnight at 4° C. The plates were then blocked with 150 μL of 1% BSA/1 mM MnCl2/0.14 M NaCl/20 mM HEPES, pH 7.2 for 1 h at 37° C. and washed 3 times (150 μL each) with Wash Buffer (50 mM Tris, pH 7.4/100 mM NaCl/1 mM MnCl2/0.05% Tween 20). Stock solutions (100 μM in 100% DMSO) of test compounds were diluted 50 fold with 150 μL of Binding Buffer (0.05% BSA/0.05% Tween 20/1 mM MnCl2/0.14 M NaCl/20 mM HEPES, pH 7.2) plus 10% DMSO. […] Fifty μL per well of each dilution was added to the ICAM-1 coated plates, followed by 50 μL per well of membrane-bound LFA-1 (280 ng/mL in Binding Buffer) derived from transfected 293 cells. The plates were shaken vigorously for 1 min (room temperature) and gently for 2 h (37° C.). After incubation, the plates were washed 3 times (150 μL each) with Wash Buffer. Mouse anti-human integrin β2 monoclonal antibody was added (100 μL/well, 1 μg/mL in Binding Buffer) and allowed to incubate for 1 h (37° C.) with gentle agitation. The plates were then washed 3 times with Wash Buffer. HRP-conjugated goat anti-mouse IgG (100 μL/well, 1:1500 dilution in Binding Buffer) was added to each well, followed by incubation for 1 h (37° C.), and concluded by three washes (150 μL each) with Wash Buffer. TMB solution (100 μL per well) was added for color development (10 min). The reaction was stopped by the addition of 100 μL of 1 M H3PO4 to each well. The plates were then read at 450 nm. The inhibitory activities of test compounds were determined by the IC50s.
# as §1, with “LFA-1/ICAM-1 antagonist activity, defined as the ability to block LFA-1 binding to immobilized ICAM-1, was quantitated using a solid-phase ELISA. Typically,” for “Typically,”, “(0.05 %” for “(0.05%”, “nm.” for “nm. The inhibitory activities of test compounds were determined by the IC50s.”
# [2] = biological target: T2, ICAM-1 binding to immobilized Mac-1 (Homo sapiens, UniProt P05107+P11215); test: Mac-1/ICAM-1 screening assay (solid-phase ELISA)
# T2 construct: made in house; host or cells: transfected 293 cells (Mac-1)
# T2 sequence (P05107 23-769, other chains not shown): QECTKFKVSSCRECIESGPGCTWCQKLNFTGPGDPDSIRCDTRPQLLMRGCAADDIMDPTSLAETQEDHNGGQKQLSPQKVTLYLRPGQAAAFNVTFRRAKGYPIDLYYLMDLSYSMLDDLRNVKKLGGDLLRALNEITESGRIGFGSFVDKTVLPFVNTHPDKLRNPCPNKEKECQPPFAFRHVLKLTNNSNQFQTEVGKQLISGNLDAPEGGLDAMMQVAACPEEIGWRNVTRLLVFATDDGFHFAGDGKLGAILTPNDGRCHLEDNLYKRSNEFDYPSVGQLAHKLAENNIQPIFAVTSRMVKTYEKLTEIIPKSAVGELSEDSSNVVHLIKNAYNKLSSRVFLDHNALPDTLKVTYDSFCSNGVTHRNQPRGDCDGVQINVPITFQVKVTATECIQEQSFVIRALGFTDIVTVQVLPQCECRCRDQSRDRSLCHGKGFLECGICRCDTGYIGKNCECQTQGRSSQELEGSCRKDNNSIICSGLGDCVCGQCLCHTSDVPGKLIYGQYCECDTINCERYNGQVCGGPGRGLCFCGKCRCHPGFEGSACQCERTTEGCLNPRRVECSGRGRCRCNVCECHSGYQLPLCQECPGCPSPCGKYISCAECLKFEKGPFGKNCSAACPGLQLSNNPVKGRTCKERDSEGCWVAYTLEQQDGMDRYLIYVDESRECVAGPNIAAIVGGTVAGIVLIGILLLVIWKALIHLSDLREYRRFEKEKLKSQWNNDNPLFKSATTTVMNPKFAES
# Procedure: (b) Mac-1/ICAM-1 screening test: Mac-1/ICAM-1 antagonist activity, defined as the ability to compete with ICAM-1 binding to immobilized Mac-1, was quantitated by a solid-phase ELISA.
# (§2) Membrane-bound Mac-1 derived from transfected 293 cells was coated onto 96-well microtiter plates (50 μL/well, 3 μg/mL Mac-1 in 20 mM Hepes, pH 7.2/0.14 M NaCl/1 mM MnCl2) overnight at 4° C. The plates were blocked with 100 μL/well of 0.5% BSA in 20 mM Hepes, pH 7.2/0.14 M NaCl/1 mM MnCl2 at 37° C. for 1 h and washed 3 times (120 μL each) with Binding Buffer (20 mM Hepes, pH 7.2/0.14 M NaCl/1 mM MnCl2/0.05% Tween 20). Test compounds were dissolved in 100% DMSO and diluted 1:50 in Binding Buffer plus 10% DMSO. A series of 1:4 dilutions were performed for each compound (concentration range, 0.12 nM-20 μM). Each dilution (25 μL/well) was added to the plates, followed by 25 μL/well of 5 dICAM-Ig (40 μg/mL in Binding Buffer). The plates were shaken vigorously for 1 min (room temperature), followed by gentle agitation for 2 h (37° C.), and washed with Binding Buffer (3 times, 120 μL each). HRP-conjugated goat anti-human IgG(Fc-specific) antibody (0.125 μg/mL in Binding Buffer plus 0.05% BSA) was added to each well (50 μL/well), followed by incubation for 1 h at 37° C. The plates were then washed 3 times with Binding Buffer (120 μL each). TMB solution (100 μL/well) was added to each well for color development for 10 min. The reaction was stopped with 1 M H3PO4 (100 μL/well) and the plates were read at 450 nm. The inhibitory activities of test compounds were determined by the IC50s.
# as §2, with “Mac-1/ICAM-1 antagonist activity, defined as the ability to compete with ICAM-1 binding to immobilized Mac-1, was quantitated by a solid-phase ELISA. Membrane-bound” for “Membrane-bound”, “5dICAM-Ig” for “5 dICAM-Ig”, “nm.” for “nm. The inhibitory activities of test compounds were determined by the IC50s.”
# [3] = read-out: LFA-1/ICAM-1 Protein-Protein Assay IC50
# [4] = read-out: Mac-1/ICAM-1 Protein-Protein Assay IC50
# T1 sequence (P20701 26-1170): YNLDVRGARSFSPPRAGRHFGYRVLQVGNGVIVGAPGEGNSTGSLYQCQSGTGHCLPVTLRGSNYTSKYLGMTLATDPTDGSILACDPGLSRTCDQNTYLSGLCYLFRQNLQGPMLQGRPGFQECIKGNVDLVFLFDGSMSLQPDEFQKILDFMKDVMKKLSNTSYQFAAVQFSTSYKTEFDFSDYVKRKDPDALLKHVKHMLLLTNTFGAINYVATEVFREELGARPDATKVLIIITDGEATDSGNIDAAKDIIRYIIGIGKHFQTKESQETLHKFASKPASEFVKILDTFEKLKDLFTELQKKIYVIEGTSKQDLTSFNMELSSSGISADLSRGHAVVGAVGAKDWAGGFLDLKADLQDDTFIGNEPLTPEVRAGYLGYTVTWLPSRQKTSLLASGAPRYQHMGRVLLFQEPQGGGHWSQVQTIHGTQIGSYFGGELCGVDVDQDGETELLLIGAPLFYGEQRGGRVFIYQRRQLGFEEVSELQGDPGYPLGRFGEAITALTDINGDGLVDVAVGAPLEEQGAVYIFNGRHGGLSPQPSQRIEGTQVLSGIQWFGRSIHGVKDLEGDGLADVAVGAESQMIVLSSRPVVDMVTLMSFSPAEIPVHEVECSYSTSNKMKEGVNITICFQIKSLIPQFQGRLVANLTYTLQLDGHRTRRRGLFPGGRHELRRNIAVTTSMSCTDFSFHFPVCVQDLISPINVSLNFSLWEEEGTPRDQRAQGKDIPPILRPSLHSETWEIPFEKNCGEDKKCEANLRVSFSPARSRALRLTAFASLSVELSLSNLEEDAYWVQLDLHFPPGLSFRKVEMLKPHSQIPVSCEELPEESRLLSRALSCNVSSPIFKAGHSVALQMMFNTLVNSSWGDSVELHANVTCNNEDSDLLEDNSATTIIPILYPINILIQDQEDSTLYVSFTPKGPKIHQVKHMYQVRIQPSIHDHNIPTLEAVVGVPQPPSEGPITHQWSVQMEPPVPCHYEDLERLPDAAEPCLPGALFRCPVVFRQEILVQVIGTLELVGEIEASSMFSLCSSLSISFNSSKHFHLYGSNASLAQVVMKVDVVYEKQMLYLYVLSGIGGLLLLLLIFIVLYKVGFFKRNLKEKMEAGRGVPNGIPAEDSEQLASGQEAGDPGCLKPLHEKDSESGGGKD
# T1 sequence (P05107 23-769): as the sequence (P05107 23-769, other chains not shown) above
SMILES,IC50 ([1]; read-out: LFA-1/ICAM IC50) [nM],IC50 ([2]; read-out: Mac-1/ICAM IC50) [nM],"IC50 [1, 3] [nM]","IC50 [2, 4] [nM]"
"COc1cccc(C(=O)NC[C@H](NC(=O)c2ccc(C(=O)NCc3cccc(O)c3)cc2Cl)C(=O)O)c1 [Compound A, N-[2-chloro-4-[[[(3-hydroxyphenyl)methyl]amino]carbonyl]benzoyl]-3-(3-methoxybenzoyl)amino-L-alanine]",1.2,43.4,,
"O=C(NCc1cccc(O)c1)c1ccc(C(=O)N[C@@H](CNC(=O)c2cc([N+](=O)[O-])[nH]n2)C(=O)O)c(Cl)c1 [Compound C, N-[2-chloro-4-[[[(3-hydroxyphenyl)methyl]amino]carbonyl]benzoyl]-3-(5-nitropyrazole-3-carbonyl)amino-L-alanine]",6.4,101,,
"COc1cc(C(=O)NC[C@H](NC(=O)c2ccc(C(=O)NCc3cccc(O)c3)cc2Cl)C(=O)O)nc2ccccc12 [Compound E, N-[2-chloro-4-[[[(3-hydroxyphenyl)methyl]amino]carbonyl]benzoyl]-3-(4-methoxyquinoline-2-carbonyl)amino-L-alanine]",15.2,521,,
"O=C(NC[C@H](NC(=O)c1c(Cl)cccc1Cl)C(=O)O)c1ccc(Br)s1 [Compound F, 3-(5-bromothiophene-2-carbonyl)amino-N-(2,6-dichlorobenzoyl)-L-alanine]",6.4,81.7,,
"O=C(NCc1cccc2[nH]ccc12)c1ccc(C(=O)N[C@@H](CNCc2ccccc2)C(=O)O)c(Cl)c1 [Compound J, 3-(phenylmethyl)amino-N-[2-chloro-4-[[(1H-indol-4-ylmethyl)amino]carbonyl]benzoyl]-L-alanine]",11.9,1410,,
O=C(NCc1cccc(O)c1)c1ccc(C(=O)N[C@@H](CNC(=O)c2cccnc2Cl)C(=O)O)c(Cl)c1 [Example 166],,,3,68
O=C(NCc1cccc(O)c1)c1ccc(C(=O)N[C@@H](CNC(=O)c2ccc(Cl)nc2)C(=O)O)c(Cl)c1 [Example 167],,,2.2,39
COc1ccc(C(=O)NC[C@H](NC(=O)c2ccc(C(=O)NCc3cccc(O)c3)cc2Cl)C(=O)O)c(OC)n1 [Example 168],,,12,224
O=C(NCc1cccc(O)c1)c1ccc(C(=O)N[C@@H](CNC(=O)c2nccnc2C(=O)Nc2ccc(Cl)cn2)C(=O)O)c(Cl)c1 [Example 171],,,1,136

# Other lines, results leading:
IC50 ([1]; read-out: LFA-1/ICAM IC50) [nM],IC50 ([2]; read-out: Mac-1/ICAM IC50) [nM],"IC50 [1, 3] [nM]","IC50 [2, 4] [nM]",SMILES
0.9,31.2,,,"O=C(NCc1cccc(O)c1)c1ccc(C(=O)N[C@@H](CNC(=O)c2ccccc2)C(=O)O)c(Cl)c1 [Compound B, 3-benzoylamino-N-[2-chloro-4-[[[(3-hydroxyphenyl)methyl]amino]carbonyl]benzoyl]-L-alanine]"
0.5,6.4,,,"O=C(NCc1cccc(O)c1)c1ccc(C(=O)N[C@@H](CNC(=O)c2cccs2)C(=O)O)c(Cl)c1 [Compound D, N-[2-chloro-4-[[[(3-hydroxyphenyl)methyl]amino]carbonyl]benzoyl]-3-(thiophene-2-carbonyl)amino-L-alanine]"
1.3,22.4,,,"O=C(NCc1cccc2[nH]ccc12)c1ccc(C(=O)N[C@@H](CNC(=O)c2cccs2)C(=O)O)c(Cl)c1 [Compound G, N-[2-chloro-4-[[(1H-indol-4-ylmethyl)amino]carbonyl]benzoyl]-3-(thiophene-2-carbonyl)amino-L-alanine]"
1.4,43.4,,,"O=C(CCc1cccc(O)c1)c1ccc(C(=O)N[C@@H](CNC(=O)c2cccs2)C(=O)O)c(Cl)c1 [Compound H, N-[2-chloro-4-[1-oxo-3-(3-hydroxyphenyl)propyl]benzoyl]-3-(thiophene-2-carbonyl)amino-L-alanine]"
2.6,75.5,,,"O=C(NC[C@H](NC(=O)c1ccc(-n2nnnc2NCc2cccc(O)c2)cc1Cl)C(=O)O)c1cccs1 [Compound I, N-[2-chloro-4-[5-[[(3-hydroxyphenyl)methyl]amino]tetrazol-1-yl]benzoyl]-3-(thiophene-2-carbonyl)amino-L-alanine]"
,,1,105,O=C(NCc1cccc(O)c1)c1ccc(C(=O)N[C@@H](CNC(=O)c2ccccn2)C(=O)O)c(Cl)c1 [Example 162]
